Test results: US11278529B2, “Methods for treating aggression associated with Alzheimer's disease” (Ovid Therapeutics Inc., priority 2014, dated 2022)

What was measured:
[1] = tested on: patients with primary insomnia; conditions: cited from earlier work
[2] = tested on: GABA-uptake; conditions: cited from earlier work
[3] = tested on: GABA; conditions: cited from earlier work
[4] = tested on: subjects under sleep-restriction; conditions: 15 mg, cited from earlier work
[5] = tested on: healthy young and elderly individuals; conditions: in vivo; cited from earlier work
[6] = tested on: healthy subjects; conditions: cited from earlier work
[7] = tested on: male Balb/Cbyj mice; test: Locomotor activity, male Balb/Cbyj mice; type: in vivo; conditions: male Balb/Cbyj mice, 1.25, 2.5 and 5 mg/Kg i.p. 30 min ahead of testing
Method: 10 male Balb/Cbyj mice were administered 0.9% NaCl, and gaboxadol: 1.25 mg/Kg, 2.5 mg/Kg and 5 mg/Kg by i.p injection 30 min ahead of testing.

[8] = tested on: male C57 mice; test: Locomotor activity, male C57 mice; type: in vivo; conditions: male C57 mice, 1.25, 2.5 and 5 mg/Kg i.p. 30 min ahead of testing
Method: 10 male C57 mice were administered 0.9% NaCl, and gaboxadol: 1.25 mg/Kg, 2.5 mg/Kg and 5 mg/Kg by i.p injection 30 min ahead of testing.

[9] = tested on: predisposed individuals; conditions: high peak concentrations; cited from earlier work
[10] = tested on: mouse model of Angelman syndrome; conditions: cited from earlier work
[11] = tested on: APP/PS1 HET mice; test: Resident-Intruder (RI) test of aggression; type: in vivo
Excerpt: Behavioral aggression is a common symptom associated with Alzheimer's disease. The Resident-Intruder (RI) test is a behavioral test that can assess aggression in male mice. The two output measures are latency to attack and total number of attacks during the test. 40 Male APP/PS1 HET and 10 Male APP/PS1 WT were used as “residents”. Male C57BL/6J mice were used as intruders.
• animal age (>2 vs. >6 months for Fmr1 and APP/PS1) • housing conditions (APP/PS1 were single housed for 3 weeks ahead of testing) • lab, diet, and potentially lighting Many Other Key Variables were the Same: • route and timing of drug admin (i.p injection 30 min ahead of testing) • gender (male only) • genetic background (C57BL/6J) • 10 animals/group
Mice were screened for baseline aggression in the Resident Intruder test. Mice with attack latencies exceeding 150 seconds were excluded from the study. Mice were then balanced by latency to first attack, attack frequency, and body weight.
Gaboxadol (referred to as Test compound A) was tested at 0.5, 1, and 2 mg/kg following IP injection, 30 min pre-treat time. Mice were tested in Resident-Intruder paradigm for 5 minutes test duration.

[12] = tested on: primary insomnia subjects; conditions: cited from earlier work
[13] = cited from earlier work
[14] = tested on: cerebellar granule cells; conditions: 500 nM; cited from earlier work
[15] = tested on: Fmr1 knockout mice; conditions: in vivo; cited from earlier work

## Oc1noc2c1CCNC2 [gaboxadol, 4,5,6,7-tetrahydroisoxazolo(5,4-c)pyridin-3-ol]
[1]; 5 mg and 15 mg, p<0.05
  TST: significantly improved
[1]; 15 mg, p<0.05
  latency to persistent sleep: significantly reduced
[1]; 15 mg
  SWS: enhance
  stage 1, stage 2, or REM sleep: without significantly affecting
[1]; statistical significance only with the 5 mg dose
  WASO: improved
[2]
  activity as a GABA-uptake inhibitor: inactive
[3]
  GABA agonist activity: very potent
[4]; over four sleep-restriction nights
  mean more SWS compared to placebo: 21.8 min
[4]; p<0.001
  stage 4 sleep and SWS compared with the placebo group: significantly more
[4]
  stage 1 sleep, REM sleep, and shifts to wake or stage 1 sleep relative to placebo: small but significant reductions
[5]
  NREM sleep, sleep continuity, delta activity within NREM sleep, SWS/SWA: increase
  REM sleep: without suppressing
[6]; all dosages (5, 10, 15 mg), p<0.001
  TST increase compared to placebo: approximately 30 minutes
[6]; all dosages (5, 10, 15 mg), p<0.05
  WASO reduction compared to placebo: 17 to 20 min
[6]; in vivo
  subjective measures of sleep quality relative to placebo: improved
[7]
  sedation (locomotor activity, total distance traveled): not sedating
[8]
  sedation (locomotor activity, total distance traveled): not sedating
[9]
  adverse event: hallucinations
[10]; 1.25 mg/kg and 2.5 mg/kg
  cerebellar dysfunction in vivo (hind paw abduction): effective to rescue
[10]; 1.25 mg/kg
  adverse effects (reduced time on rotarod): without adverse effects
[11]; Alzheimer disease model
  heightened aggression: normalizes heightened aggression
[11]; HET mice, 0.5, 1, and 2 mg/kg IP, 30 min pre-treat
  attack frequency: significantly attenuated
[11]; HET mice, 0.5, 1, and 2 mg/kg IP, 30 min pre-treat, compared to vehicle
  latency to first attack: significantly increased
[12]; 10 mg (p<0.01) and 20 mg (p<0.001)
  SWS compared with placebo: increase
[12]; 20 mg, p<0.01
  WASO: significantly reduced
[12]; 20 mg, p<0.05
  TST: significantly increased
[12]; both doses (10 and 20 mg), p<0.001
  NASO: significantly reduced
[13]; given orally, healthy subjects
  t max: 30 to 60 min
[13]; mostly unchanged
  dose excreted in the urine: More than 95%
[14]
  excitability of cerebellar granule cells: reduced
  tonic holding currents: increased
[15]
  hyperactivity (travel and velocity): reduction or dampening
  hypersensitivity to auditory stimuli: reduction
